The values below come from publication PMC6450719 (Biochimica et biophysica acta. Proteins and proteomics, 2018).

The assay addresses T1, human islet amyloid polypeptide (hIAPP, amylin) (Homo sapiens, UniProt P10997).
T1 sequence (P10997 34-70 limits assumed): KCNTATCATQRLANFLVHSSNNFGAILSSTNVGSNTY
The assay can be described thus: ITC. It counts as binding.

One may read the Kd as the constant that tells how readily two partners part at equilibrium. Read a high Kd as lower affinity. Regarding `O=C(O[C@@H]1Cc2c(O)cc(O)cc2O[C@@H]1c1cc(O)c(O)c(O)c1)c1cc(O)c(O)c(O)c1` [EGCG], the Kd is ~1100 nM.
